PubChem BioAssay AID290 (DTP/NCI, 2004)
“And” between values parts separate entries of the source, which are not always exact repeats. Identical values can stand only once. Inconclusive results are not listed.

Test system: mice, P1798 lymphosarcoma sc, survival or tumor weight T/C
Assay: NCI In Vivo Anticancer Drug Screen. Data for tumor model P1798 Lymphosarcoma (subcutaneous) in unknown mice
Method: The antitumor activity of compounds was measured in mice bearing transplantable tumors. Survival or tumor size were measured and the results are expressed as the measurement made in the treated group (T) divided by the measurement made in the vehicle treated control group (C). The tumor model used in this assay is P1798 Lymphosarcoma (subcutaneous) in unknown mice

[1] = endpoint: mean tumor weight, dose: 50.0 mg/kg/injection, schedule: Q01DX010 (ip), vehicle: carboxymethylcellulose (CMC), higher = larger tumour
[2] = endpoint: mean tumor weight, dose: 100.0 mg/kg/injection, schedule: Q01DX010 (ip), vehicle: carboxymethylcellulose (CMC), higher = larger tumour
[3] = endpoint: mean tumor weight, dose: 25.0 mg/kg/injection, schedule: Q01DX010 (ip), vehicle: carboxymethylcellulose (CMC), higher = larger tumour
[4] = endpoint: mean tumor weight, dose: 62.5 mg/kg/injection, schedule: Q01DX010 (sc), vehicle: steriod suspending solution, higher = larger tumour
[5] = endpoint: mean tumor weight, dose: 5.0 mg/kg/injection, schedule: Q01DX010 (ip), vehicle: saline, higher = larger tumour

## CC(C)(c1ccccc1)c1ccc(O)cc1
[1]
  T/C: 91 % of control
[2]
  T/C: 109 % of control
endpoint: mean tumor weight, dose: 200.0 mg/kg/injection, schedule: Q01DX010 (ip), vehicle: carboxymethylcellulose (CMC), higher = larger tumour
  T/C: 108 % of control

## O=c1[nH]c2cc(Cl)c(Cl)cc2o1
endpoint: mean tumor weight, dose: 12.5 mg/kg/injection, schedule: Q01DX010 (ip), vehicle: carboxymethylcellulose (CMC), higher = larger tumour
  T/C: 78 % of control
[3]
  T/C: 76 % of control
[1]
  T/C: 117 % of control
[2]
  T/C: 61 % of control

## COC1=C(N)C(=O)c2nc(-c3nc(C(=O)O)c(C)c(-c4ccc(OC)c(OC)c4O)c3N)ccc2C1=O
endpoint: mean tumor weight, dose: 0.05 mg/kg/injection, schedule: Q01DX010 (ip), vehicle: other, higher = larger tumour
  T/C: 65 % of control
endpoint: mean tumor weight, dose: 0.1 mg/kg/injection, schedule: Q01DX010 (ip), vehicle: other, higher = larger tumour
  T/C: 39 % of control

## O=C(Nc1ccc(C2=NCCN2)cc1)c1ccc(C(=O)Nc2ccc(C3=NCCN3)cc2)c(Cl)c1
endpoint: mean tumor weight, dose: 12.5 mg/kg/injection, schedule: Q01DX010 (ip), vehicle: water, higher = larger tumour
  T/C: 70 % of control
endpoint: mean tumor weight, dose: 14.0 mg/kg/injection, schedule: Q01DX011 (ip), vehicle: carboxymethylcellulose (CMC), higher = larger tumour
  T/C: 7 % of control
endpoint: mean tumor weight, dose: 28.0 mg/kg/injection, schedule: Q01DX001 (ip), vehicle: carboxymethylcellulose (CMC), higher = larger tumour
  T/C: 80 % of control
endpoint: mean tumor weight, dose: 55.0 mg/kg/injection, schedule: Q01DX001 (ip), vehicle: carboxymethylcellulose (CMC), higher = larger tumour
  T/C: 33 % of control

## COc1cc2c(c(OC)c1OC)-c1ccc(OC)c(=O)cc1[C@@H](NC(C)=O)CC2
endpoint: mean tumor weight, dose: 0.12 mg/kg/injection, schedule: Q01DX010 (ip), vehicle: saline, higher = larger tumour
  T/C: 50 % of control
endpoint: mean tumor weight, dose: 0.25 mg/kg/injection, schedule: Q01DX010 (ip), vehicle: saline, higher = larger tumour
  T/C: 59 % of control
endpoint: mean tumor weight, dose: 0.5 mg/kg/injection, schedule: Q01DX010 (ip), vehicle: saline, higher = larger tumour
  T/C: 5 % of control

## CS(=O)(=O)OCCCCOS(C)(=O)=O
endpoint: mean tumor weight, dose: 2.0 mg/kg/injection, schedule: Q01DX010 (ip), vehicle: methylcellulose (MC), higher = larger tumour
  T/C: 74 % of control and 85 % of control
endpoint: mean tumor weight, dose: 4.0 mg/kg/injection, schedule: Q01DX010 (ip), vehicle: methylcellulose (MC), higher = larger tumour
  T/C: 95 % of control
endpoint: mean tumor weight, dose: 8.0 mg/kg/injection, schedule: Q01DX010 (ip), vehicle: methylcellulose (MC), higher = larger tumour
  T/C: 117 % of control and 92 % of control
endpoint: mean tumor weight, dose: 16.0 mg/kg/injection, schedule: Q01DX010 (ip), vehicle: methylcellulose (MC), higher = larger tumour
  T/C: 50 % of control

## N#[N+]c1cnc([O-])[nH]c1=O
endpoint: mean tumor weight, dose: 5.0 mg/kg/injection, schedule: Q01DX010 (ip), vehicle: carboxymethylcellulose (CMC), higher = larger tumour
  T/C: 105 % of control
endpoint: mean tumor weight, dose: 10.0 mg/kg/injection, schedule: Q01DX010 (ip), vehicle: carboxymethylcellulose (CMC), higher = larger tumour
  T/C: 47 % of control

## CC/C(=C(/CC)c1ccc(O)cc1)c1ccc(O)cc1
[4]
  T/C: 64 % of control
endpoint: mean tumor weight, dose: 125.0 mg/kg/injection, schedule: Q01DX010 (sc), vehicle: steriod suspending solution, higher = larger tumour
  T/C: 83 % of control
endpoint: mean tumor weight, dose: 500.0 mg/kg/injection, schedule: Q01DX010 (sc), vehicle: steriod suspending solution, higher = larger tumour
  T/C: 39 % of control

## CN(C)c1nc(N(C)C)nc(N(C)C)n1
endpoint: mean tumor weight, dose: 62.5 mg/kg/injection, schedule: Q01DX010 (ip), vehicle: carboxymethylcellulose (CMC), higher = larger tumour
  T/C: 119 % of control
endpoint: mean tumor weight, dose: 250.0 mg/kg/injection, schedule: Q01DX010 (ip), vehicle: carboxymethylcellulose (CMC), higher = larger tumour
  T/C: 88 % of control
endpoint: mean tumor weight, dose: 500.0 mg/kg/injection, schedule: Q01DX010 (ip), vehicle: carboxymethylcellulose (CMC), higher = larger tumour
  T/C: 106 % of control

## N=C(N)SCc1c2ccccc2c(CSC(=N)N)c2ccccc12
endpoint: mean tumor weight, dose: 2.5 mg/kg/injection, schedule: Q01DX011 (ip), vehicle: carboxymethylcellulose (CMC), higher = larger tumour
  T/C: 85 % of control
endpoint: mean tumor weight, dose: 5.0 mg/kg/injection, schedule: Q01DX011 (ip), vehicle: carboxymethylcellulose (CMC), higher = larger tumour
  T/C: 99 % of control
endpoint: mean tumor weight, dose: 10.0 mg/kg/injection, schedule: Q01DX011 (ip), vehicle: carboxymethylcellulose (CMC), higher = larger tumour
  T/C: 50 % of control
endpoint: mean tumor weight, dose: 20.0 mg/kg/injection, schedule: Q01DX011 (ip), vehicle: carboxymethylcellulose (CMC), higher = larger tumour
  T/C: 40 % of control

## C[C@]12CCC(=O)C=C1CC[C@@H]1[C@@H]2C(=O)C[C@@]2(C)[C@H]1CC[C@]2(O)C(=O)CO
endpoint: mean tumor weight, dose: 100.0 mg/kg/injection, schedule: Q01DX010 (sc), vehicle: steriod suspending solution, higher = larger tumour
  T/C: 7 % of control
endpoint: mean tumor weight, dose: 200.0 mg/kg/injection, schedule: Q01DX010 (sc), vehicle: steriod suspending solution, higher = larger tumour
  T/C: 1 % of control

## C[C@H](N)C(=O)N[C@@H]1[C@H]2C(=C(O)C[C@@H](O)[C@@H]2O)C(=O)O[C@@H]1C
endpoint: mean tumor weight, dose: 125.0 mg/kg/injection, schedule: Q01DX010 (ip), vehicle: saline, higher = larger tumour
  T/C: 61 % of control
endpoint: mean tumor weight, dose: 250.0 mg/kg/injection, schedule: Q01DX010 (ip), vehicle: saline, higher = larger tumour
  T/C: 84 % of control
endpoint: mean tumor weight, dose: 500.0 mg/kg/injection, schedule: Q01DX010 (ip), vehicle: saline, higher = larger tumour
  T/C: 64 % of control

## CCNc1nncs1
endpoint: mean tumor weight, dose: 18.0 mg/kg/injection, schedule: Q01DX010 (ip), vehicle: carboxymethylcellulose (CMC), higher = larger tumour
  T/C: 93 % of control
endpoint: mean tumor weight, dose: 37.0 mg/kg/injection, schedule: Q01DX010 (ip), vehicle: carboxymethylcellulose (CMC), higher = larger tumour
  T/C: 67 % of control

## C=CC(CN1CC1)OC(C)=O (configuration not stated)
endpoint: mean tumor weight, dose: 4.0 mg/kg/injection, schedule: Q01DX010 (ip), vehicle: saline, higher = larger tumour
  T/C: 71 % of control
endpoint: mean tumor weight, dose: 6.0 mg/kg/injection, schedule: Q01DX010 (ip), vehicle: saline, higher = larger tumour
  T/C: 64 % of control
endpoint: mean tumor weight, dose: 8.0 mg/kg/injection, schedule: Q01DX010 (ip), vehicle: saline, higher = larger tumour
  T/C: 42 % of control

## CN(C)c1ccc(Nc2c3ccccc3nc3ccccc23)cc1
endpoint: mean tumor weight, dose: 3.15 mg/kg/injection, schedule: Q01DX010 (ip), vehicle: carboxymethylcellulose (CMC), higher = larger tumour
  T/C: 84 % of control
endpoint: mean tumor weight, dose: 6.3 mg/kg/injection, schedule: Q01DX010 (ip), vehicle: carboxymethylcellulose (CMC), higher = larger tumour
  T/C: 86 % of control
[3]
  T/C: 36 % of control
[1]
  T/C: 10 % of control

## Nc1nc(=S)c2[nH]cnc2[nH]1
endpoint: mean tumor weight, dose: 0.12 mg/kg/injection, schedule: Q01DX010 (ip), vehicle: carboxymethylcellulose (CMC), higher = larger tumour
  T/C: 77 % of control
endpoint: mean tumor weight, dose: 0.25 mg/kg/injection, schedule: Q01DX010 (ip), vehicle: carboxymethylcellulose (CMC), higher = larger tumour
  T/C: 64 % of control
endpoint: mean tumor weight, dose: 0.5 mg/kg/injection, schedule: Q01DX010 (ip), vehicle: carboxymethylcellulose (CMC), higher = larger tumour
  T/C: 81 % of control

## C[C@]12C=CC(=O)C=C1CC[C@@H]1[C@@H]2[C@@H](O)C[C@@]2(C)[C@H]1CC[C@]2(O)C(=O)CO
endpoint: mean tumor weight, dose: 31.3 mg/kg/injection, schedule: Q01DX010 (sc), vehicle: steriod suspending solution, higher = larger tumour
  T/C: 22 % of control
[4]
  T/C: 8 % of control

## CC(=O)O[C@]1(C(C)=O)CC[C@H]2[C@@H]3C[C@H](C)C4=CC(=O)C=C[C@]4(C)[C@@]3(F)[C@@H](O)C[C@@]21C
endpoint: mean tumor weight, dose: 5.0 mg/kg/injection, schedule: Q01DX010 (sc), vehicle: steriod suspending solution, higher = larger tumour
  T/C: 87 % of control
endpoint: mean tumor weight, dose: 10.0 mg/kg/injection, schedule: Q01DX010 (sc), vehicle: steriod suspending solution, higher = larger tumour
  T/C: 106 % of control
endpoint: mean tumor weight, dose: 20.0 mg/kg/injection, schedule: Q01DX010 (sc), vehicle: steriod suspending solution, higher = larger tumour
  T/C: 74 % of control
endpoint: mean tumor weight, dose: 40.0 mg/kg/injection, schedule: Q01DX010 (sc), vehicle: steriod suspending solution, higher = larger tumour
  T/C: 47 % of control

## N#CCSc1ncnc2nc[nH]c12
[3]
  T/C: 49 % of control
[1]
  T/C: 46 % of control

## Nc1ncnc2c1ncn2C1OC(CO)CC1O (configuration not stated)
endpoint: mean tumor weight, dose: 37.5 mg/kg/injection, schedule: Q01DX010 (ip), vehicle: carboxymethylcellulose (CMC), higher = larger tumour
  T/C: 111 % of control
endpoint: mean tumor weight, dose: 75.0 mg/kg/injection, schedule: Q01DX010 (ip), vehicle: carboxymethylcellulose (CMC), higher = larger tumour
  T/C: 85 % of control

## NC(=O)c1ccc(N)nc1
endpoint: mean tumor weight, dose: 0.63 mg/kg/injection, schedule: Q01DX010 (ip), vehicle: saline, higher = larger tumour
  T/C: 71 % of control
endpoint: mean tumor weight, dose: 1.25 mg/kg/injection, schedule: Q01DX010 (ip), vehicle: saline, higher = larger tumour
  T/C: 82 % of control
endpoint: mean tumor weight, dose: 2.5 mg/kg/injection, schedule: Q01DX010 (ip), vehicle: saline, higher = larger tumour
  T/C: 52 % of control
[5]
  T/C: 21 % of control

## c1ccc(CNc2ncnc3[nH]ncc23)cc1
endpoint: mean tumor weight, dose: 15.6 mg/kg/injection, schedule: Q01DX010 (ip), vehicle: carboxymethylcellulose (CMC), higher = larger tumour
  T/C: 82 % of control

## O=c1[nH]cc(F)c(=O)[nH]1
endpoint: mean tumor weight, dose: 2.0 mg/kg/injection, schedule: Q01DX010 (ip), vehicle: saline, higher = larger tumour
  T/C: 119 % of control
endpoint: mean tumor weight, dose: 2.5 mg/kg/injection, schedule: Q01DX015 (ip), vehicle: carboxymethylcellulose (CMC), higher = larger tumour
  T/C: 108 % of control
[5]
  T/C: 36 % of control
endpoint: mean tumor weight, dose: 6.3 mg/kg/injection, schedule: Q01DX010 (ip), vehicle: saline, higher = larger tumour
  T/C: 44 % of control
endpoint: mean tumor weight, dose: 10.0 mg/kg/injection, schedule: Q01DX015 (ip), vehicle: carboxymethylcellulose (CMC), higher = larger tumour
  T/C: 119 % of control
endpoint: mean tumor weight, dose: 12.5 mg/kg/injection, schedule: Q01DX010 (ip), vehicle: saline, higher = larger tumour
  T/C: 27 % of control
endpoint: mean tumor weight, dose: 40.0 mg/kg/injection, schedule: Q01DX001 (ip), vehicle: carboxymethylcellulose (CMC), higher = larger tumour
  T/C: 71 % of control
endpoint: mean tumor weight, dose: 80.0 mg/kg/injection, schedule: Q01DX001 (ip), vehicle: carboxymethylcellulose (CMC), higher = larger tumour
  T/C: 69 % of control
endpoint: median survival time, dose: 5.0 mg/kg/injection, schedule: Q01DX010 (ip), vehicle: saline, higher = longer survival
  T/C: 97 % of control and 103 % of control (2×)
endpoint: median survival time, dose: 10.0 mg/kg/injection, schedule: Q01DX010 (ip), vehicle: saline, higher = longer survival
  T/C: 117 % of control (2×) and 103 % of control
endpoint: median survival time, dose: 20.0 mg/kg/injection, schedule: Q01DX010 (ip), vehicle: saline, higher = longer survival
  T/C: 116 % of control and 39 % of control
endpoint: median survival time, dose: 40.0 mg/kg/injection, schedule: Q01DX010 (ip), vehicle: saline, higher = longer survival
  T/C: 24 % of control and 28 % of control
endpoint: median survival time, dose: 80.0 mg/kg/injection, schedule: Q01DX010 (ip), vehicle: saline, higher = longer survival
  T/C: 26 % of control
